Values of other authors as cited in patent US20200170950A1, “COMPOSITIONS COMPRISING A CANNABINOID OR A CANNABIS-DERIVED COMPOUND, METHODS OF MAKING AND USE” (priority 2018, published 2020).

Assays:
5-HT1A receptor = target: T1, 5-HT1A receptor (Homo sapiens, UniProt P08908)
T1 sequence (P08908 1-422): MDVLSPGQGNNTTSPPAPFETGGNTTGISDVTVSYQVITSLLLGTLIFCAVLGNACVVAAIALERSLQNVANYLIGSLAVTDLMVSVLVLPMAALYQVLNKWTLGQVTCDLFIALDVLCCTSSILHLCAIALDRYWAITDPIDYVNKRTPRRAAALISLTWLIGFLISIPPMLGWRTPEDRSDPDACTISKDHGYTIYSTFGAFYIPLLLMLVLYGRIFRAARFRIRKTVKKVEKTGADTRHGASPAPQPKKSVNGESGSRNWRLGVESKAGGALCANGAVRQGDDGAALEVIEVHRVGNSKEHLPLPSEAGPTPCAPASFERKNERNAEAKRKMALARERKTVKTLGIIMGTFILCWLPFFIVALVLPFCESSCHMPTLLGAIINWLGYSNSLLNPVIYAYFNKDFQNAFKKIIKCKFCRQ

CB1 receptor = CB1 receptor (Homo sapiens, UniProt P21554)
CB1 receptor, sequence (P21554 whole entry): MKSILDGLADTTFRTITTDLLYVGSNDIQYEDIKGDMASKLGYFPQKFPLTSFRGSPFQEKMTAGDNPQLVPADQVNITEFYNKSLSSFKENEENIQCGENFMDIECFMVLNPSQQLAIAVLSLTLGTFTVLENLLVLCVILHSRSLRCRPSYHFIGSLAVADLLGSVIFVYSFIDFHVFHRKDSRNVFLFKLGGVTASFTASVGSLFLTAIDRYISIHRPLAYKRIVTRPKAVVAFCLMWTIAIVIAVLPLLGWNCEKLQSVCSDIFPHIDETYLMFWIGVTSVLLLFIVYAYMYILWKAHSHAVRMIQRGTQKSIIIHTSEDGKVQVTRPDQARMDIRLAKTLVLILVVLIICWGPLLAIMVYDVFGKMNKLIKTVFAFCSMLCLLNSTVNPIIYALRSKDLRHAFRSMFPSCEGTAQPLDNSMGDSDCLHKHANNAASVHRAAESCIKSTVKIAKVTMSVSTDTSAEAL

CB2 receptor = CB2 receptor (Homo sapiens, UniProt P34972)
CB2 receptor, sequence (P34972 whole entry): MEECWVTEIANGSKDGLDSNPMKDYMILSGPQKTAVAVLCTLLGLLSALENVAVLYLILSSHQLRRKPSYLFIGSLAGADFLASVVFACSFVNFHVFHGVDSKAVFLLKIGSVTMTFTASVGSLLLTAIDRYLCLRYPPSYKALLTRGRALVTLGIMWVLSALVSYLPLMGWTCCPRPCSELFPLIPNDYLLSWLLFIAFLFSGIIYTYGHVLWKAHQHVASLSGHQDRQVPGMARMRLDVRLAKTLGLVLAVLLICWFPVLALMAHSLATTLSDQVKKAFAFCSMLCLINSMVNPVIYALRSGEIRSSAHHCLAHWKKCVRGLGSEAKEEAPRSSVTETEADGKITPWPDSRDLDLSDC

Row | SMILES | affinity, 5-HT1A receptor antagonist (5-HT1A receptor) | affinity, α2-adrenergic receptor agonist (α2-adrenergic receptor) | activity/affinity at CB1 receptor (CB1 receptor) | activity/affinity at CB2 receptor (CB2 receptor)
1 | CCCCCc1cc(O)c(C/C=C(\C)CCC=C(C)C)c(O)c1 [CBG, Cannabigerol] | moderate affinity | high affinity | low affinity | antagonist
2 | CCCCCc1cc(O)c2c(c1)OC(C)(C)c1ccc(C)cc1-2 [CBN, Cannabinol] |  |  | partial agonist | higher affinity
